Measurements: paper PMC10117764, “The roles of serine hydrolases and serum albumin in alisol B 23-acetate hydrolysis in humans” (Frontiers in Pharmacology, 2023)
Values joined by “and” are separate entries in the source; they are usually repeats but may differ in a detail not shown here. Identical values can stand only once.

Tests used:
[1] = Hydrolytic half-life of AB23A in mouse liver microsomes; assay type: in vitro ADME; settings: mouse liver microsomes (MLMs), pH 7.4, MLMs 0.10 mg/mL, read-out: T1/2 (hydrolytic half-life)
hBchE = biological target: T1, hBchE (Homo sapiens, UniProt P06276); test: Reaction phenotyping assay of AB23A hydrolysis, hBchE; assay type: in vitro ADME; settings: hBchE 5 μg/mL, AB23A 20 μM, 60 min, pH 7.4 at 37°C
T1 construct: purchased Sigma-Aldrich Lot SLCG5158
T1 sequence (P06276 29-602): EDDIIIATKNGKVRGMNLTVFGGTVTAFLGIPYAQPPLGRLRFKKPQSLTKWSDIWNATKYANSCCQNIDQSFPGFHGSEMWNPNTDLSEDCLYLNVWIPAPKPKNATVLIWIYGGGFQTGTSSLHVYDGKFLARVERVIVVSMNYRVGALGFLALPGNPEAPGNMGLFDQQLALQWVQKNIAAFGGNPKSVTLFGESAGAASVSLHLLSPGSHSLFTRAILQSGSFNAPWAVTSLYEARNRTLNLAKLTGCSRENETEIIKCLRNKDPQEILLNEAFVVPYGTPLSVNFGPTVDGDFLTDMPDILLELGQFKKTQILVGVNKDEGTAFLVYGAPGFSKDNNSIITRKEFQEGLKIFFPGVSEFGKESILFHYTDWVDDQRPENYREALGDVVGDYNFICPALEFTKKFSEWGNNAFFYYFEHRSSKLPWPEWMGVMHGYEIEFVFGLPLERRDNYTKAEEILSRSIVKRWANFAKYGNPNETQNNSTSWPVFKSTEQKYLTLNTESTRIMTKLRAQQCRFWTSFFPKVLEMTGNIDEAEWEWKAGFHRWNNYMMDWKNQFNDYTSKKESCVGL
Experimental: The hydrolytic rates of AB23A in different human recombinant enzymes (hCES1A, hCES2A, hPL, hIAH1, hNotum, hAchE, hBchE, hSA, hCTSA, hMAGL) were assayed. The incubation system included PBS, each tested enzyme (5 μg/mL, final concentration), and AB23A (20 μM). After incubation for 1 h at 37°C, ice-cold acetonitrile was added to terminate the reaction and precipitate proteins. The supernatants by centrifuging were used to quantify the formation rates of AB by LC-UV analysis. The detection wavelength of AB was 196 nm.

[2] = Kinetic analysis of AB23A hydrolysis in HIMs; assay type: in vitro ADME, human
Experimental: (§1) The enzymatic kinetics of AB23A hydrolysis in different tissue preparations (HLMs, HIMs, human plasma) and human recombinant enzymes (hCES1A, hCES2A, hSA, hBchE) were analyzed. The incubation system (200 μL) consisted of PBS, each tested enzyme, and AB23A (ranging from 0 to 1,000 μM). After incubating for 1 h, the supernatants were then used for LC-UV analysis. The kinetic parameters of AB23A hydrolysis were fitted by the following Michaelis−Menten Eq. 1 ([Zhang et al., 2022]). V=(Vmax×[S])⁄(Km+[S]) (1) Here, K m is the Michaelis constant of AB23A hydrolysis, V max is the maximum velocity of AB23A hydrolysis, V max /K m is used to calculate the intrinsic clearance (CL int ).

[3] = Kinetic analysis of AB23A hydrolysis in HLMs; assay type: in vitro ADME, human
Experimental: as §1

CC(=O)O[C@H](C[C@@H](C)C1=C2C[C@H](O)C3[C@@]4(C)CCC(=O)C(C)(C)C4CC[C@]3(C)[C@@]2(C)CC1)[C@H]1OC1(C)C (stereo partly drawn) [AB23A, Alisol B 23-acetate]
half-life [1]: 2.3 ± 0.01 min
Hydrolytic rate (formation of AB) in reaction phenotyping (hBchE): faster hydrolytic rate
K m of AB23A hydrolysis [2]: 164.00 ± 18.63 µM
V max of AB23A hydrolysis [2]: 2.93 ± 0.10 nmol/min/mg protein and 2.93 ± 0.10 ^a nmol/min/mg protein
K m of AB23A hydrolysis [3]: 41.18 ± 3.46 µM
V max of AB23A hydrolysis [3]: 4.77 ± 0.08 nmol/min/mg protein and 4.77 ± 0.08 ^a nmol/min/mg protein
